The text below walks through data of patent publication US12139617B2, “Polymeric fluorophores, compositions comprising the same, and methods of preparing and using the same” (North Carolina State University, priority 2017, dated 2024).

The nature of data set [1]: Absorption and emission spectra of copolymers F1-F3 and fluorophores D1-D3. Type of data set: physicochemical. The source says: The target dye-loaded copolymers F1-F3 were then subject to investigations of their spectroscopic properties in both organic solvents and aqueous solution. […] Attaching to the 120-kDa amphiphilic copolymer drastically enhances the water solubility of BODIPY D1 and chlorin D2 without strong perturbation on the spectroscopic properties. Emission band for F1 and F2 in water remains the same as the ones measured in organic solutions, showing minimal dye-dye interaction is involved in aqueous solution of F1 and F2 at μM concentration. […] This negative result may be because of the inappropriate size of the copolymer backbone. Polymer larger in size may be required to encapsulate large hydrophobic fluorophores like the phthalocyanine D3.
All chemicals obtained commercially were used as received unless otherwise noted. Reagent-grade solvents (CH2Cl2, THF, methanol) and HPLC-grade water were used as received. NMR data was measured in a solution of CDCl3 unless otherwise noted. Noncommercial compounds 1, 2, and 4 were prepared following literature procedures. […] Samples were detected with Agilent 1260 infinity refractive index detector. Absorption spectra were measured on Agilent 8453 and Shimadzu UV1800 instruments using dilute (μmolar) solutions of the compound in UV transparent (e.g., quartz) cuvettes versus a solvent blank at room temperature.

The nature of data set [2]: Fluorescence quantum yield of F1-F3 and D1-D3. Type of data set: physicochemical. The source says:
[…] […] These comparisons indicate the absence of dye-dye quenching resulting from the aggregation for F1 and F2 in μM aqueous solutions. […] Also, a smaller phthalocyanine skeleton (e.g. with methyl instead of heptyl as peripheral groups) may be encapsulated with the current length of copolymer successfully.

`Cc1cc(C)c(-c2c3nc(c(-c4ccc(C(=O)NN)cc4)c4ccc(cc5nc(cc6ccc2[nH]6)CC5(C)C)[nH]4)C=C3)c(C)c1` [Compound D2, 5-[4-(N-Aminocarbamoyl)phenyl]-10-Mesityl-18,18-dimethylchlorin]: the absorption wavelength in data set [1] came to 640 nm. The “Φf (fluorescence quantum yield)” value in data set [2] (CH2Cl2) was 0.19.

As for `CCCCCCCc1cc2c(cc1CCCCCCC)-c1nc-2nc2[nH]c(nc3nc(nc4[nH]c(n1)c1cc(CCCCCCC)c(CCCCCCC)cc41)-c1cc(C#Cc4ccc(CC(=O)NN)cc4)ccc1-3)c1cc(CCCCCCC)c(CCCCCCC)cc21` [Compound D3, 2-[4-(N-Aminocarbamoyl)methylphenylethynyl]-9,10,16,17,23,24-hexaheptylphthalocyanine], the absorption wavelength in data set [1] is given as 700 nm. Besides, in data set [2] (Toluene), the “Φf (fluorescence quantum yield)” value worked out at 0.68.
